Assay results as given in patent publication US11802128B2, “Azetidine and pyrrolidine PARP1 inhibitors and uses thereof” (Xinthera, Inc., priority 2021, dated 2023).

What was measured:
DLD-1 BRCA2(−/−) cells = assay: Cell growth inhibition assay (CellTiter-Glo cell viability, 7 days); assay type: cell-based; conditions: Homo sapiens, 168 h
From the text: (§1) The objective of this study is to evaluate the effect of invention compounds on cell proliferation through the cell viability assay in DLD-1 BRCA2(−/−) and parental isogenic pair and MDA-MB-436 (mutated BRCA1) cell lines. The CellTiter-Glo (CTG) based cell viability assay is designed to determine the number of viable cells in the culture because of compound effect, by quantifying ATP, which indicates the presence of metabolically active cells.
(§2) DLD-1 BRCA2(−/−) and parental isogenic pair were cultured in RPMI 1640 supplemented with 10% fetal bovine serum (FBS), and MDA-MB-436 cells were cultured in DMEM supplemented with 10% FBS. Both are culture at 37° C. with 5% CO2. Invention compounds were distributed to the 384 well plate (Corning, 3764) using Echo acoustic liquid handler to form a 1:3 serially diluted final concentration with top dose of 10 or 30 μM. The cells were seeded into the plate in the density of 50 cells/well (DLD-1 parental), 200 cells/well (DLD-1 BRCA2−/−), or 500 cells/well (MDA-MB-436). After a short spun, the cells were cultured in a well moisturized incubator at 37° C. with 5% CO2 for 7 days without disturbance. The cell viability was measured by CellTiter Glo 2.0 assay kit (Promega, G9243), and growth inhibition rate was calculated and plotted against final compound concentration, and the data were fitted in Xfit to generate IC50.

[1] = test system: MDA-MB-436 (mutated BRCA1) cells; assay: as above; assay type: cell-based; conditions: Homo sapiens, 168 h, MDA-MB-436, 7 days
From the text: as §1, §2

PARP1 = PARP1 (Homo sapiens (Human), UniProt P09874); assay: Biochemical fluorescent polarization (FP) assay, displacement of PARPi-FL; assay type: binding; conditions: 20 nM protein, 3 nM PARPi-FL, 4 h at room temperature
Chain of PARP1 (P09874 whole entry): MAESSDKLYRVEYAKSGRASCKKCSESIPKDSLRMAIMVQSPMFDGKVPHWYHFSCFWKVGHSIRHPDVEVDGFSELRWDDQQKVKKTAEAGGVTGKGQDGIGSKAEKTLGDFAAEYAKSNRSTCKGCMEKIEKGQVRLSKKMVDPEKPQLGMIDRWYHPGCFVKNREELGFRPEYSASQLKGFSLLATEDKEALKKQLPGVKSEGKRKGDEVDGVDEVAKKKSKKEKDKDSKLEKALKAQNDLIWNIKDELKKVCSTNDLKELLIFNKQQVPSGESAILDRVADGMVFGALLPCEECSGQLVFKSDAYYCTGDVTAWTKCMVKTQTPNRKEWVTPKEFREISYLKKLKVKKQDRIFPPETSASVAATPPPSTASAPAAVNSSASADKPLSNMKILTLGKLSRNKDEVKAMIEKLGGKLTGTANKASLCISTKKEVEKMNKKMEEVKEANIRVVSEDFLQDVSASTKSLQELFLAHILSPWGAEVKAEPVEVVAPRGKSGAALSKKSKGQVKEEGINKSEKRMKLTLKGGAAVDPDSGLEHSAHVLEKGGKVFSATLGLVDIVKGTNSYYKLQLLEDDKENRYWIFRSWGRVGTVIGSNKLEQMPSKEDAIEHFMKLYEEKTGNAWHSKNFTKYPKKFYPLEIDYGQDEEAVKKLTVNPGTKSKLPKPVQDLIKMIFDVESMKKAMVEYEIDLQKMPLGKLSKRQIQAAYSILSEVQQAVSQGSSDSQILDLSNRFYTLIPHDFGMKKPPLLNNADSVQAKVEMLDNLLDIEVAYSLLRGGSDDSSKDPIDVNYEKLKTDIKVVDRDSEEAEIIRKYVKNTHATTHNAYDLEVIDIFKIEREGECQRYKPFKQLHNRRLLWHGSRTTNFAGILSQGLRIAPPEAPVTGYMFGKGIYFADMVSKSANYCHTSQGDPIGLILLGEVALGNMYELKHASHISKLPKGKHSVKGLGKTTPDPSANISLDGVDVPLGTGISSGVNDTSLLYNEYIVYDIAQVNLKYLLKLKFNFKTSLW
Description: (§3) The assay was performed utilizing the following method:
(§4) 100% DMSO was used for the high (with protein) and low (without protein) control samples. 20 nL of compound or DMSO alone was added to individual assay plate wells.
(§5) PARP1 and PARP2 protein were expressed, purified, and diluted in assay buffer containing 50 mM Tris pH 8.0, 0.001% Triton X-100, 10 mM MgCl2, 150 mM NaCl to a final concentration of 20 nM. The PARPi-FL was then added at a final concentration of 3 nM.
(§6) The assay plate is centrifuged at 1000 rpm for 1 min and incubated for 4 h at room temperature.
(§7) The fluorescent polarization is read using an Envision plate reader using the following settings: […]

PARP2 = PARP2 (Homo sapiens (Human), UniProt Q9UGN5); assay: as above; assay type: binding; conditions: 20 nM protein, 3 nM PARPi-FL, 4 h at room temperature; read-out: IC50 FP PARP2
Chain of PARP2 (Q9UGN5 whole entry): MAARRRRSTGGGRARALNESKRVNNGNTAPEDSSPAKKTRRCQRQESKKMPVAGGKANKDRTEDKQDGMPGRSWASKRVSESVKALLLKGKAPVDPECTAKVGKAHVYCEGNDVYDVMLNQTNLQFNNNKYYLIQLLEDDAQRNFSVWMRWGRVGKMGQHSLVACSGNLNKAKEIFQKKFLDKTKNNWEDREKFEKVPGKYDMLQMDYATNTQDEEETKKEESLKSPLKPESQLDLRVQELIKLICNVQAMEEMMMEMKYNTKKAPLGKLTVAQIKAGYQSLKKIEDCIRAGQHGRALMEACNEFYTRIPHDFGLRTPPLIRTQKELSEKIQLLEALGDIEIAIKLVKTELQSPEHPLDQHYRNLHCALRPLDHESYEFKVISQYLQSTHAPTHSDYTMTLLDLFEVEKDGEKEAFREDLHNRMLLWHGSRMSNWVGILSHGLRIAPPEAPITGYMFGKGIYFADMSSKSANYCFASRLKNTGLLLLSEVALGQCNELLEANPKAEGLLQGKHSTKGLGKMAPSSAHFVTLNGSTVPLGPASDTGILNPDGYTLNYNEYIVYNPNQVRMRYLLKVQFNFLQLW
Description: as §3, §4, §5, §6, §7

Row | EC50 (DLD-1 BRCA2(−/−) cells) [nM] | EC50 [1] [nM] | IC50 (PARP1) [nM] | IC50 (PARP2) [nM] | Structure (SMILES)
1 | 1.2 | 0.62 | 4.5 | 900 | CCc1cc2ncc([C@@H](C)N3C[C@H](Oc4ccc(C(=O)NC)nc4)[C@H]3C)cc2[nH]c1=O (single isomer, unassigned) [Example 54, 5-{[(2R,3S)-1-[(1R*)-1-(7-ethyl-6-oxo-5H-1,5-naphthyridin-3-yl)ethyl]-2-methylazetidin-3-yl]oxy}-N-methylpyridine-2-carboxamide]
2 | 38 | 12 | 6.4 | > 100000 | CCc1cc2ncc([C@H](C)N3C[C@H](Oc4ccc(C(=O)NC)nc4)[C@H]3C)cc2[nH]c1=O (single isomer, unassigned) [Example 55, 5-{[(2R,3S)-1-[(1R*)-1-(7-ethyl-6-oxo-5H-1,5-naphthyridin-3-yl)ethyl]-2-methylazetidin-3-yl]oxy}-N-methylpyridine-2-carboxamide]
3 | 1.8 | 1.1 | 7.2 | 9600 | Cc1cc2ncc(CN3C[C@H](Oc4ccc(C(=O)N[C@H]5CC5(F)F)nc4)[C@H]3C)cc2[nH]c1=O (single isomer, unassigned) [Example 89]
4 | 2.8 | 1.8 | 8.5 | 3100 | Cc1cc2ncc(CN3C[C@H](Oc4ccc(C(=O)N[C@@H]5CC5(F)F)nc4)[C@H]3C)cc2[nH]c1=O (single isomer, unassigned) [Example 90]
5 | 8.8 | 6.8 | 6.8 | > 100000 | Cc1cc2ncc(CN3CCC(Oc4ccc(C(=O)NCC(F)F)nc4)C3)cc2[nH]c1=O (stereo in doubt) [Example 10, N-(2,2-difluoroethyl)-5-{[(3R)-1-[(7-methyl-6-oxo-5H-1,5-naphthyridin-3-yl)methyl]pyrrolidin-3-yl]oxy}pyridine-2-carboxamide]
6 | 13 | 4.5 | 6.4 | > 100000 | CNC(=O)c1ccc(O[C@@H]2CCN(Cc3cnc4cc(C5CC5)c(=O)[nH]c4c3)C2)cn1 [Example 3, 5-{[(3R)-1-[(7-cyclopropyl-6-oxo-5H-1,5-naphthyridin-3-yl)methyl]pyrrolidin-3-yl]oxy}-N-methylpyridine-2-carboxamide]
7 | 2 | 1.1 | 5.8 | 11000 | CCc1cc2ncc(CN3CC[C@@H](Oc4ccc(C(=O)NC5CC5)nc4)C3)cc2[nH]c1=O [Example 4, N-cyclopropyl-5-{[(3R)-1-[(7-ethyl-6-oxo-5H-1,5-naphthyridin-3-yl)methyl]pyrrolidin-3-yl]oxy}pyridine-2-carboxamide]
8 | 13 | 8.3 | 7.4 | 66000 | Cc1cc2ncc(CN3CC[C@@H](Oc4ccc(C(=O)NC5CC5)nc4)C3)cc2[nH]c1=O [Example 7, N-cyclopropyl-5-{[(3R)-1-[(7-methyl-6-oxo-5H-1,5-naphthyridin-3-yl)methyl]pyrrolidin-3-yl]oxy}pyridine-2-carboxamide]
9 | 83 | 36 | 6.6 | 62000 | CCc1cc2ncc(CN3CC[C@@](C)(Oc4ccc(C(=O)NC)nc4)C3)cc2[nH]c1=O [Example 12, 5-{[(3R)-1-[(7-ethyl-6-oxo-5H-1,5-naphthyridin-3-yl)methyl]-3-methylpyrrolidin-3-yl]oxy}-N-methylpyridine-2-carboxamide]
10 | 9.8 | 4.1 | 5.2 | 14000 | CCc1cc2ncc(CN3CC(Nc4ccc(C(=O)NC)nc4)C3)cc2[nH]c1=O [Example 14, 5-({1-[(7-ethyl-6-oxo-5H-1,5-naphthyridin-3-yl)methyl]azetidin-3-yl}amino)-N-methylpyridine-2-carboxamide]
11 | 1.8 | 1.2 | 6.6 | 14000 | CCc1cc2ncc(CN3CC(Oc4ccc(C(=O)NC5CC5)nc4)C3)cc2[nH]c1=O [Example 21, N-cyclopropyl-5-({1-[(7-ethyl-6-oxo-5H-1,5-naphthyridin-3-yl)methyl]azetidin-3-yl}oxy)pyridine-2-carboxamide]
12 | 37 | 27 | 5.1 | 16000 | CCc1cc2ncc(CN3CC(Oc4ccc(C#N)cc4)C3)cc2[nH]c1=O [Example 22, 4-({1-[(7-ethyl-6-oxo-5H-1,5-naphthyridin-3-yl)methyl]azetidin-3-yl}oxy)benzonitrile]
13 | 13 | 24 | 9.1 | 17000 | CCc1cc2ncc(CN3CC(Oc4ccc(C#N)nc4)C3)cc2[nH]c1=O [Example 24]
14 | 36 | 41 | 11 | 25000 | CNC(=O)c1ncc(O[C@@H]2CCN(Cc3cnc4cc(C5CC5)c(=O)[nH]c4c3)C2)cc1F [Example 25]
15 | 55 | 60 | 12 | > 100000 | Cc1cc2ncc(CN3CC[C@@H](Oc4cnc(C(=O)NC5CC5)c(F)c4)C3)cc2[nH]c1=O [Example 26]
16 | 19 | 18 | 6.7 | 9100 | CCc1cc2ncc(CN3CC[C@@H](Oc4cnc(C(=O)NC)c(F)c4)C3)cc2[nH]c1=O [Example 27]
17 | 15 | 3.3 | 3.9 | > 100000 | CCc1cc2ncc(CN3CC[C@@H](Oc4ccc(C(=O)NC)nc4C#N)C3)cc2[nH]c1=O [Example 28]
18 | 78 | 140 | 11 | 72000 | CCc1cc2ncc(CN3CC[C@@H](Oc4ccc(C#N)cn4)C3)cc2[nH]c1=O [Example 29]
19 | 15 | 47 | 7.7 | > 100000 | CCc1nc2cc(F)c(CN3CC(Oc4ccc(C(=O)NC)nc4)C3)cc2[nH]c1=O [Example 30]
20 | 13 | 31 | 37 | > 100000 | CCc1cc2ncc(CN3C[C@H](Oc4ccc(C(=O)NC)nc4)C[C@H]3C)cc2[nH]c1=O [Example 31]
21 | 6.4 | 16 | 6.8 | > 100000 | CCc1nc2cc(F)c(CN3CC[C@@H](Oc4ccc(C(=O)NC)nc4)C3)cc2[nH]c1=O [Example 32]
22 | 4.2 | 3.7 | 5.5 | 33000 | CCc1cc2ncc(CN3CC[C@@H](Oc4ccc(C(=O)NC5COC5)nc4)C3)cc2[nH]c1=O [Example 33]
23 | 21 | 8.7 |  |  | C[C@@H]1[C@@H](Oc2ccc(C(=O)NCC(F)F)nc2)CN1Cc1ccc2c3c(c(=O)[nH]c2c1F)CCO3 [Example 120]
24 | 1.2 | 1.8 |  |  | CNC(=O)c1ccc(O[C@H]2CN(Cc3ccc4c([nH]c(=O)c5c(F)cnn54)c3F)[C@@H]2C)cn1 [Example 121, 5-{[(2R,3S)-1-({3,6-difluoro-4-oxo-5H-pyrazolo[1,5-a]quinoxalin-7-yl}methyl)-2-methylazetidin-3-yl]oxy}-N-methylpyridine-2-carboxamide]

Row | Structure (SMILES) | EC50 (DLD-1 BRCA2(−/−) cells) [nM] | EC50 [1] [nM] | IC50 (PARP1) [nM] | IC50 (PARP2) [nM]
25 | Cc1cc2ncc([C@@H](C)N3C[C@H](Oc4ccc(C#N)nc4)[C@H]3C)cc2[nH]c1=O (single isomer, unassigned) [Example 60] | > 1000 | > 1000 | > 100 | > 100000
26 | Cc1cc2ncc([C@H](C)N3C[C@H](Oc4ccc(C#N)nc4)[C@H]3C)cc2[nH]c1=O (single isomer, unassigned) [Example 61] | 10 | 8.8 | 18 | 23000
27 | CCc1cc2ncc(CN3C[C@H](Oc4ccc(C(=O)NC)nc4)[C@H]3C)cc2[nH]c1=O [Example 17, 5-{[(2R,3S)-1-[(7-ethyl-6-oxo-5H-1,5-naphthyridin-3-yl)methyl]-2-methylazetidin-3-yl]oxy}-N-methylpyridine-2-carboxamide] | 1.2 | 0.79 | 7.3 | 21000
28 | CCc1cc2ncc(CN3C[C@H](Oc4ccc(C(=O)NC)nc4)[C@@H]3C)cc2[nH]c1=O [Example 20, 5-(((2S,3S)-1-((7-ethyl-6-oxo-5,6-dihydro-1,5-naphthyridin-3-yl)methyl)-2-methylazetidin-3-yl)oxy)-N-methylpicolinamide] | 40 | 35 | 5.6 | 19000
